From US20230085307A1, “PYRIDAZINONE COMPOUND AND HERBICIDE” (NISSAN CHEMICAL CORPORATION, priority 2019, published 2023) come the findings set out here.

For experiment [1], the system named is Japanese bulrush. The experiment is described as follows: Test Example 2: herbicidal activity, application during weed generation under submerged conditions (Table 17, symbol B). The class given is in vivo, Japanese bulrush (Schoenoplectus juncoides). Conditions: AAH 320 g/ha; application during weed generation, submerged conditions. The procedure:
(§1) [Test Example 2] Herbicidal Activity Test by Application during Weed Generation under Submerged Conditions After alluvial soil was placed into 1/10000 are of Wagner pot, water was poured and mixed to form a submerged condition having a water depth of 4 cm. Seeds of late watergrass, Japanese bulrush, and oval-leafed pondweed were sowed in a mixed manner in the aforementioned pot, and the pot was placed in a greenhouse at 25° C. to 30° C. for growth of the plants. When late watergrass, Japanese bulrush, and oval-leafed pondweed were grown to one leaf stage to two leaf stage, the emulsion agent of the compound of the present invention prepared according to Formulation Example 2 was diluted with water so as to achieve a predetermined herbicide amount, and the diluted emulsion agent was applied to the surface of the water. Three weeks after the herbicide application, the effect of the herbicide on each plant was evaluated according to the criteria of Test Example 1.

Experiment [2] relates to barnyard grass. As to the kind of experiment: Test Example 3: herbicidal effect by foliage application, Wagner pot (Table 18, symbol H). The class given is in vivo, barnyard grass (Echinochloa crus-galli). Conditions: 320 g/ha. The procedure, abridged: (§2)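 Plants were sown in alluvial soil held under 0.1–0.5 cm standing water and grown 14 days in a greenhouse at 25–30 °C. An emulsifiable formulation, water-diluted to the set dose, was then sprayed onto the foliage, and effects were scored three weeks later using previously defined criteria.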

Experiment [3] has as its system oval-leafed pondweed. As to the kind of experiment: Test Example 2: herbicidal activity, application during weed generation under submerged conditions (Table 17, symbol C). In kind it is in vivo, oval-leafed pondweed (Monochoria vaginalis). Conditions: AAH 320 g/ha; application during weed generation, submerged conditions. The procedure: as §1
Experiment [4] deals with Chinese sprangletop. As to the kind of experiment: Test Example 3: herbicidal effect by foliage application, Wagner pot (Table 18, symbol D). In kind it is in vivo, chinese sprangletop (Leptochloa chinensis). To be noted: 320 g/ha. The procedure, abridged: as §2
Experiment [5] deals with late watergrass. The experiment is described as follows: Test Example 2: herbicidal activity, application during weed generation under submerged conditions (Table 17, symbol A). The class given is in vivo, late watergrass (Echinochloa oryzicola). To be noted: AAH 320 g/ha; application during weed generation, submerged conditions. A digest of the protocol: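 Effect on each weed is rated three weeks post-treatment, using the same scoring criteria as the preceding test. Plants grow from mixed-sown seed in flooded alluvial soil (4 cm water) at 25° C. to 30° C., and are treated at one to two leaves with diluted emulsion dropped onto the water.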

In experiment [6] the test system is rice flat sedge. The experiment is described as follows: Test Example 3: herbicidal effect by foliage application, Wagner pot (Table 18, symbol E). The class given is in vivo, rice flat sedge (Cyperus iria). To be noted: 320 g/ha. A digest of the protocol: as §2
The subject of experiment [7] is wild oat. The experiment is described as follows: Test Example 5: herbicidal effect by foliage application, plastic box (Table 20, symbol I). Conditions: foliage application, 320 g/ha, evaluated three weeks after application. The class given is in vivo, wild oat (Avena fatua). A digest of the protocol: (§3)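 Foliar spray test: emulsion formulation diluted in water to a set application rate, sprayed onto 14-day-old plants raised in diluvial soil at 25° C to 30° C under glass. Both herbicidal effect and crop effect rated visually three weeks later.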

For experiment [8], the system named is lambsquarters. As to the kind of experiment: Test Example 5: herbicidal effect by foliage application, plastic box (Table 20, symbol O). In kind it is in vivo, lambsquarters (Chenopodium album). Conditions: foliage application, 320 g/ha, evaluated three weeks after application. The procedure, abridged:
as §3

The test system of experiment [9] is chickweed. The experiment is described as follows: Test Example 5: herbicidal effect by foliage application, plastic box (Table 20, symbol P). To be noted: foliage application, 320 g/ha, evaluated three weeks after application. In kind it is in vivo, common chickweed (Stellaria media). The procedure, abridged:
as §3

The subject of experiment [10] is Italian ryegrass. The experiment is described as follows: Test Example 5: herbicidal effect by foliage application, plastic box (Table 20, symbol K). To be noted: foliage application, 320 g/ha, evaluated three weeks after application. The class given is in vivo, Italian ryegrass (Lolium multiflorum). A digest of the protocol:
as §3

For experiment [11], the system named is redroot pigweed. As to the kind of experiment: Test Example 5: herbicidal effect by foliage application, plastic box (Table 20, symbol N). In kind it is in vivo, redroot pigweed (Amaranthus retroflexus). To be noted: foliage application, 320 g/ha, evaluated three weeks after application. A digest of the protocol:
as §3

The subject of experiment [12] is windgrass. As to the kind of experiment: Test Example 5: herbicidal effect by foliage application, plastic box (Table 20, symbol L). Conditions: foliage application, 320 g/ha, evaluated three weeks after application. The class given is in vivo, windgrass (Apera spica-venti). The procedure, abridged:
as §3

Experiment [13] has as its system velvetleaf. The experiment is described as follows: Test Example 5: herbicidal effect by foliage application, plastic box (Table 20, symbol M). In kind it is in vivo, velvetleaf (Abutilon theophrasti). Conditions: foliage application, 320 g/ha, evaluated three weeks after application. The procedure, abridged: as §3
Experiment [14] deals with persian speedwell. The experiment is described as follows: Test Example 5: herbicidal effect by foliage application, plastic box (Table 20, symbol R). The class given is in vivo, Persian speedwell (Veronica persica). To be noted: foliage application, 320 g/ha, evaluated three weeks after application. The procedure, abridged:
as §3

Experiment [15] has as its system southern crabgrass. The experiment is described as follows: Test Example 5: herbicidal effect by foliage application, plastic box (Table 20, symbol F). In kind it is in vivo, southern crabgrass (Digitaria ciliaris). Conditions: foliage application, 320 g/ha, evaluated three weeks after application. The procedure, abridged:
as §3

Experiment [16] relates to blackgrass. The experiment is described as follows: Test Example 5: herbicidal effect by foliage application, plastic box (Table 20, symbol J). In kind it is in vivo, blackgrass (Alopecurus myosuroides). Conditions: foliage application, 320 g/ha, evaluated three weeks after application. The procedure, abridged:
as §3

The subject of experiment [17] is barnyard grass. The experiment is described as follows: Test Example 5: herbicidal effect by foliage application, plastic box (Table 20, symbol H). Conditions: foliage application, 320 g/ha, evaluated three weeks after application. The class given is in vivo, barnyard grass (Echinochloa crus-galli). A digest of the protocol:
as §3

Experiment [18] deals with green foxtail. The experiment is described as follows: Test Example 5: herbicidal effect by foliage application, plastic box (Table 20, symbol G). The class given is in vivo, green foxtail (Setaria viridis). To be noted: foliage application, 320 g/ha, evaluated three weeks after application. A digest of the protocol:
as §3

Regarding `COC(=O)COc1ccc(-c2sc3ccccc3c2-c2c(O)c(C)nn(C)c2=O)cc1` [1-232], the “herbicidal effect rating, B: Japanese bulrush” value in [1] was 0 (Herbicidal rate of 5% or less (almost no effect)). Moreover, the “herbicidal effect on H (barnyard grass), rating 0-5” value in [2] is 3 (Herbicidal rate of 40% or more and less than 70%). Moreover, the “herbicidal effect rating, C: oval-leafed pondweed” value in experiment [3] is reported as 0 (Herbicidal rate of 5% or less (almost no effect)). Moreover, the “herbicidal effect on D (Chinese sprangletop), rating 0-5” value in [4] was 3 (Herbicidal rate of 40% or more and less than 70%). In addition, the “herbicidal effect rating, A: late watergrass” value in experiment [5] was 3 (Herbicidal rate of 40% or more and less than 70%). The “herbicidal effect on E (rice flat sedge), rating 0-5” value in [6] was 3 (Herbicidal rate of 40% or more and less than 70%).
For `Cc1nn(C)c(=O)c(-c2c(-c3ccc(OCc4ccccc4)cc3)sc3ccc(F)cc23)c1OCc1ccccc1` [2-065], the “herbicidal effect on I: wild oat” value in experiment [7] is listed as 0 (Herbicidal rate of 5% or less (almost no effect)). The “herbicidal effect rating, B: Japanese bulrush” value in [1] was 0 (Herbicidal rate of 5% or less (almost no effect)). Further, the “herbicidal effect on O: lambsquarters” value in [8] is 1 (Herbicidal rate of 5% or more and less than 20%). Moreover, the “herbicidal effect on P: chickweed” value in experiment [9] is 0 (Herbicidal rate of 5% or less (almost no effect)). Also, in experiment [2], the “herbicidal effect on H (barnyard grass), rating 0-5” value is 3 (Herbicidal rate of 40% or more and less than 70%). Further, the “herbicidal effect on K: Italian ryegrass” value in experiment [10] is 0 (Herbicidal rate of 5% or less (almost no effect)). For the same molecule, the “herbicidal effect on N: redroot pigweed” value in experiment [11] was 3 (Herbicidal rate of 40% or more and less than 70%). For the same molecule, the “herbicidal effect on L: windgrass” value in experiment [12] is 0 (Herbicidal rate of 5% or less (almost no effect)). In [13], the “herbicidal effect on M: velvetleaf” value is recorded as 0 (Herbicidal rate of 5% or less (almost no effect)). In addition, in experiment [14], the “herbicidal effect on R: persian speedwell” value was 0 (Herbicidal rate of 5% or less (almost no effect)). The “herbicidal effect on F: southern crabgrass” value in experiment [15] is on record as 0 (Herbicidal rate of 5% or less (almost no effect)). Moreover, the “herbicidal effect rating, C: oval-leafed pondweed” value in [3] is reported as 0 (Herbicidal rate of 5% or less (almost no effect)). The “herbicidal effect on D (Chinese sprangletop), rating 0-5” value in experiment [4] is 3 (Herbicidal rate of 40% or more and less than 70%). For the same molecule, in experiment [16], the “herbicidal effect on J: blackgrass” value is given as 0 (Herbicidal rate of 5% or less (almost no effect)). The “herbicidal effect rating, A: late watergrass” value in [5] is 3 (Herbicidal rate of 40% or more and less than 70%). The “herbicidal effect on H: barnyard grass” value in experiment [17] is 0 (Herbicidal rate of 5% or less (almost no effect)). Moreover, in [18], the “herbicidal effect on G: green foxtail” value is 0 (Herbicidal rate of 5% or less (almost no effect)). In experiment [6], the “herbicidal effect on E (rice flat sedge), rating 0-5” value is 3 (Herbicidal rate of 40% or more and less than 70%).
